According to US4959372A, “Anti-hypertensive substituted 2-azabicyclooctane-3-carboxylic acids” (Adir et lie, priority 1987, dated 1990):

Test system: converting enzyme (enzyme for conversion of angiotensin I to angiotensin II)
Assay: Inhibition of the converting enzyme (angiotensin I / angiotensin II pressor response) after oral administration to unanesthetized dogs
Format: in vivo
Settings: 1 mg/kg
Method: The compound of the invention for which E=H was tested by oral administration on unanesthetized dogs. The arterial blood pressure of the dogs was measured with a pressure gauge ("Statham P23 Db") after catheterization of the aorta via the femoral artery. The recording is carried out with a recording apparatus ("Brush 400"). Angiotensin I and angiotensin II are injected into the animals intravenously at doses of 0.5 and 0.10 γ/kg, respectively. A dose/activity curve is established for each of these hormones. The compound according to the invention for which E=H is then administered orally at a dose of 1 mg/kg. A second dose/activity curve is then established for angiotensin I and for angiotensin II after administration of the test product.

Cl.NCCCC[C@H](N[C@@H](CCc1ccccc1)C(=O)O)C(=O)N1C2CCC(CC2)[C@H]1C(=O)O [compound of the invention for which E=H, (3S)-2-{(S)-N-[(S)-1-carboxy-3-phenylpropyl]lysyl}-3-carboxy-2-azabicyclo[2.2.2]octane hydrochloride]
percentage inhibition of the converting enzyme (15 minutes after administration): 80%
percentage inhibition of the converting enzyme (30 minutes after administration): ~100%
percentage inhibition of the converting enzyme (6 hours after administration): greater than 70%
